A short description of this data set: Decomposition temperature by thermogravimetric analyser (TGA). It is filed as physicochemical. Conditions: reactants. How it is done: The decomposition temperature of the reactants and polyol ester of different grades (PE25, PE50 and PE100) were determined using a thermogravimetric analyser (TGA). TGA is a method of thermal analysis by measuring the changes in the mass of a sample over increasing temperatures.

Turning to `CCCCCCCC(=O)O` [Caprylic acid], the Decomposition temperature lay within 150.9 to 193.3 °C.
Compound `OCC(O)CO` [Glycerin] returned a Decomposition temperature of 178.7 to 220.9 °C.
`O=C(O)CCCCCCCCC(=O)O` [Sebacic acid]: the “Amount of sample decomposed within the temperature range” value is on record as 95.24 wt. % and the Decomposition temperature is 247.9 to 283.9 °C.

For the origin of these results see patent publication US20230233430A1, “POLYOL ESTERS FROM BIOBASED FEEDSTOCKS FOR USE AS EMOLLIENT IN PERSONAL CARE APPLICATIONS” (priority 2020, published 2023).
